Measured values from patent US8883720B2, “Template-fixed beta-hairpin peptidomimetics with CXCR4 antagonizing activity” (Polyphor AG, priority 2008, dated 2014).
Numbered stars: 1 amine (or outer) side, 2 acyl side, 3 side chain; on linkers, the order of the positions; unused ones are H or OH. Bridge positions count the residues as written; N and C are the ends. Square brackets hold non-standard residues; d marks the D form. Peptide text beside a SMILES is read from it. Abu(3S-NH2) = C[C@H](N)[C@H](N)C(=O)O; Hpla = O=C(O)[C@@H](O)Cc1ccc(O)cc1; X1 = NCC[C@H](O[*:1])C(=O)[*:2]; Lac = C[C@H](O)C(=O)O

How the values were obtained:
human CXCR4 = molecular target: T1, human CXCR4 (Homo sapiens, UniProt P61073); assay: Ca2+-assay: CXCR4-antagonizing activity (SDF-1 induced calcium mobilization); type: cell-based; conditions: mouse pre-B cell line 300-19 stably transfected with human CXCR4, read-out: IC50% [nM] ± SD, CXCR4 receptor
T1 construct: expressed in transfected cells; host or cells: mouse pre-B cell line 300-19
Text: 2.3. Ca^2+-Assay: CXCR4-Antagonizing Activity of the Depsipeptides
Increases in intracellular calcium were monitored using a Flexstation 384 (Molecular Devices, Sunnyvale, Calif.) to assay the depsipeptides for CXCR4 antagonism in a mouse pre-B cell line 300-19 stably transfected with human CXCR4 (E. Oberlin, A. Amara, F. Bachelerie, C. Bessia, J.-L. Virelizier, F. Arenzana-Seisdedos, O. Schwartz, J.-M. Heard, I. Clark-Lewis, D. F. Legler, M. Loetscher, M. Baggiolini, B. Moser, Nature 1996, 382, 833-835; M. Loetscher, T. Geiser, T. O'Reilly, R. Zwalen, M. Baggiolini, B. Moser, J. Biol. Chem. 1994, 269, 232-237; M. D'Apuuo, A. Rolink, M. Loetscher, J. A. Hoxie, I. Clark-Lewis, F. Melchors, M. Baggiolini, B. Moser, Eur. J. Immunol. 1997, 27, 1788-1793). The cells were batch loaded with the Calcium 4 Assay kit (Molecular Devices) in assay buffer (Hanks Balanced salt solution [HBSS], 20 mM HEPES, pH 7.4, 0.1% BSA) for 1 h at room temperature and labeled cells were dispensed into black well assays plates (Costar No. 3603). Calcium mobilization induced by stromal-derived factor-1 (SDF-1) was measured in the Flexstation 384 (excitation: 485 nm; emission: 525 nm) for 90 seconds. Antagonist activity of depsipeptides was determined by spiking the cells with compounds prior to SDF-1 addition. Dose response curves (compound concentration versus % maximum response for SDF-1) were determined for each antagonist and IC50 values were calculated by fitting the data to a four parameter logistic equation using SoftmaxPro 4.8 (Molecular Devices).

in vitro = type: cell-based
Experimental: The cytotoxicity of the depsipeptides to HELA cells (Acc57) and COS-7 cells (CRL-1651) was determined using the MTT reduction assay (T. Mossman, J. Immunol. Meth. 1983, 65, 55-63; M. V. Berridge, A. S. Tan, Arch. Biochem. Biophys. 1993, 303, 474-482). Briefly, the method was as follows: 7000 HELA cells/well and 4500 COS-7 cells/well were seeded and grown in 96-well microtiter plates for 24 h at 37° C. at 5% CO2. Thereafter, time zero (Tz) was determined by MTT reduction (see below). The supernatant of the remaining wells was discarded, and fresh medium and compounds in serial dilutions (12.5, 25 and 50 μM, triplicates) were pipetted into the wells. After incubation of the cells for 48 h at 37° C. at 5% CO2 the supernatant was discarded again and 100 μL MTT reagent (0.5 mg/mL in RPMI1640 and DMEM, respectively)/well was added. Following incubation at 37° C. for 2 h the media were aspirated and the cells were spiked (100 μL isopropanol/well). The absorbance of the solubilized formazan was measured at 595 nm (OD595peptide). For each concentration averages were calculated from triplicates. The percentage of growth was calculated as follows: (OD595peptide-OD595Tz-OD595Empty well)/(OD595Tz-OD595Empty well)×100%. The GI50 (Growth Inhibition) concentrations were calculated for each depsipeptide by using a trend line function for the concentrations (50, 25, 12.5 and 0 μM), the corresponding percentages and the value 50, (=TREND (C50:C0, %50:%0, 50).

[1] = tested on: human red blood cells (hRBC); type: cell-based; conditions: red cells of human, 1 h
Experimental: 2.5. Hemolysis The depsipeptides were tested for their hemolytic activity against human red blood cells (hRBC). Fresh hRBC were washed three times with phosphate buffered saline (PBS) and centrifuged for 10 min at 2000×g. Compounds (100 μM) were incubated with 20% hRBC (v/v) for 1 h at 37° C. The final erythrocyte concentration was approximately 0.9×10^9 cells/mL. A value of 0% and 100% cell lyses, respectively, was determined by incubation of hRBC in the presence of PBS alone and 0.1% Triton X-100 in H2O, respectively. The samples were centrifuged, the supernatants were 20-fold diluted in PBS buffer and the optical densities (OD) were measured at 540 nm. The 100% lyses value (OD540H2O) gave an OD540 of approximately 1.3-1.8. Percent hemolysis was calculated as follows: (OD540peptide/OD540H2O)×100%.

[2] = Plasma stability, human plasma; type: in vitro ADME; conditions: 37° C., sampled up to 240 min; for half-life at 10 μM: read-out: Plasmastability human pl. T1/2
Experimental: (§1) The stability of the depsipeptides in human and mouse plasma was determined by applying the following method: 315 μL/deep well of freshly thawed human plasma (Basler Blutspende-dienst) and mouse plasma (Harlan Sera-Lab, UK), respectively, were spiked with 35 μL/well of compound in PBS (100 μM, triplicate) and incubated at 37° C. At t=0, 15, 30, 60, 120 and 240 min aliquots of 50 μL were transferred to filtration plate wells containing 150 μL/well of acetonitrile. Following shaking for 2 min the occurred suspensions were filtrated by vacuum and finally, 100 μL of each filtrate were transferred to a propylene microtiter plate, and analyzed by LC/MS as follows: Column: Waters, XBridge C18, mobile phases: (A) water+0.1% formic acid and (B) acetonitrile/water, 95/5 (v/v)+0.1% formic acid, gradient: 5%-100% (B) in 2 minutes, electrospray ionization, MRM detection (triple quadrupole). The peak areas were determined and triplicate values are averaged. The stability is expressed in percent of the initial value at t=0. (tx/t0×100). By using the TREND function of EXCEL (Microsoft Office 2003) T1/2 were determined.

[3] = Plasma stability, mouse plasma; type: in vitro ADME; conditions: 37° C., sampled up to 240 min; for half-life at 10 μM: read-out: Plasmastability mouse pl. T1/2
Experimental: as §1

T1 sequence (P61073 whole entry): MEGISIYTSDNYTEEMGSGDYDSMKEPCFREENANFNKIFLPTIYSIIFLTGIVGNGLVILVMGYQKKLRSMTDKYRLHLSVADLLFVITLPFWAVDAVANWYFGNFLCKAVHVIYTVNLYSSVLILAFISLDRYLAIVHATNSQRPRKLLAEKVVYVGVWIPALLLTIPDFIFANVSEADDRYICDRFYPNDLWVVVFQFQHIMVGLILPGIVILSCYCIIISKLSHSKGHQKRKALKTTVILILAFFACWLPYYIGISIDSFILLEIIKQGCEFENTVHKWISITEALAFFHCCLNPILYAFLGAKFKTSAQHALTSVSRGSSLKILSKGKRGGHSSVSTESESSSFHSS

| IC50 (human CXCR4) | GI50 at 48 h (in vitro; African green monkey) | GI50 at 48 h (in vitro; human) | half-life at 10 μM [2] | half-life at 10 μM [3] | Plasmastability human pl. T1/2 [2] | Plasmastability mouse pl. T1/2 [3] | SMILES | Hemolysis at 100 μM [1] |
| --- | --- | --- | --- | --- | --- | --- | --- | --- |
| 0.8 ± 0.5 nM | 12 µM | 2 µM | 1.32 h | 1.22 h |  |  | C[C@@H]1NC(=O)[C@H](Cc2c[nH]cn2)NC(=O)[C@H](Cc2ccc(O)cc2)NC(=O)[C@@H]2CCCN2C(=O)[C@H]2CCCN2C(=O)[C@H](CCCCN)NC(=O)[C@H](CCC(N)=O)NC(=O)[C@H](Cc2ccc(O)cc2)NC(=O)[C@@H]2CSSC[C@H](NC1=O)C(=O)N[C@@H](CO)C(=O)O[C@@H](C)C(=O)N1CCC[C@@H]1C(=O)N[C@@H]([C@H](C)N)C(=O)N[C@@H](CCCNC(=N)N)C(=O)N[C@@H](Cc1ccc(O)cc1)C(=O)N2 [Example 1] (cyclo(YHACS[Lac][dP][Abu(3S-NH2)]RYCYQK[dP]P); disulfide 4-11) | 0.2% |
| 0.7 ± 0.7 nM | > 50 µM | > 50 µM |  |  | > 4 h | > 4 h | C[C@@H]1NC(=O)[C@H](Cc2c[nH]cn2)NC(=O)[C@H](Cc2ccc(O)cc2)NC(=O)[C@@H]2CCCN2C(=O)[C@H]2CCCN2C(=O)[C@H](CCCCN)NC(=O)[C@H](CCC(N)=O)NC(=O)[C@H](Cc2ccc(O)cc2)NC(=O)[C@@H]2CSSC[C@H](NC1=O)C(=O)N[C@@H](CO)C(=O)N[C@@H](C)C(=O)N1CCC[C@@H]1C(=O)O[C@@H](CCN)C(=O)N[C@@H](CCCNC(=N)N)C(=O)N[C@@H](Cc1ccc(O)cc1)C(=O)N2 [Example 2] | 0.7% |
| 2.7 ± 1.4 nM | > 50 µM | > 50 µM | 1.35 h | 2.27 h |  |  | C[C@@H]1NC(=O)[C@H](Cc2c[nH]cn2)NC(=O)[C@H](Cc2ccc(O)cc2)NC(=O)[C@@H]2CCCN2C(=O)[C@H]2CCCN2C(=O)[C@H](CCCCN)NC(=O)[C@H](CCC(N)=O)NC(=O)[C@H](Cc2ccc(O)cc2)OC(=O)[C@@H]2CSSC[C@H](NC1=O)C(=O)N[C@@H](CO)C(=O)N[C@@H](C)C(=O)N1CCC[C@@H]1C(=O)N[C@@H]([C@H](C)N)C(=O)N[C@@H](CCCNC(=N)N)C(=O)N[C@@H](Cc1ccc(O)cc1)C(=O)N2 [Example 3] (cyclo(YHACSA[dP][Abu(3S-NH2)]RYC[Hpla]QK[dP]P); disulfide 4-11) | 0.4% |
| 4.4 ± 1.6 nM | > 50 µM | > 50 µM |  |  | > 4 h | > 4 h | C[C@@H]1NC(=O)[C@H](Cc2c[nH]cn2)NC(=O)[C@H](Cc2ccc(O)cc2)NC(=O)[C@@H]2CCCN2C(=O)[C@H]2CCCN2C(=O)[C@H](CCCCN)NC(=O)[C@H](Cc2ccc(O)cc2)OC(=O)[C@H](Cc2ccc(O)cc2)NC(=O)[C@@H]2CSSC[C@H](NC1=O)C(=O)N[C@@H](CO)C(=O)N[C@@H](C)C(=O)N1CCC[C@@H]1C(=O)N[C@@H]([C@H](C)N)C(=O)N[C@@H](CCCNC(=N)N)C(=O)N[C@@H](Cc1ccc(O)cc1)C(=O)N2 [Example 4] (cyclo(YHACSA[dP][Abu(3S-NH2)]RYCY[Hpla]K[dP]P); disulfide 4-11) | 1.0% |
| 82.4 ± 12.8 nM | > 50 µM | > 50 µM |  |  |  |  | C[C@@H]1NC(=O)[C@H](Cc2c[nH]cn2)NC(=O)[C@H](Cc2ccc(O)cc2)NC(=O)[C@@H]2CCCN2C(=O)[C@H]2CCCN2C(=O)[C@H](CCN)OC(=O)[C@H](CCC(N)=O)NC(=O)[C@H](Cc2ccc(O)cc2)NC(=O)[C@@H]2CSSC[C@H](NC1=O)C(=O)N[C@@H](CCCNC(=N)N)C(=O)N[C@@H](C)C(=O)N1CCC[C@@H]1C(=O)N[C@@H]([C@H](C)N)C(=O)N[C@@H](CCCNC(=N)N)C(=O)N[C@@H](Cc1ccc(O)cc1)C(=O)N2 [Example 8] (cyclo(YHACRA[dP][Abu(3S-NH2)]RYCYQ[X1][dP]P); disulfide 4-11) | 0.4% |
